Reference: US20230042653A1, “COMBINATIONS” (Recurium IP Holdings, LLC, priority 2019, published 2023)

Test system: MCF-7 xenograft tumor
Test: MCF-7 xenograft tumor model, combination study
Assay type: in vivo
Conditions: single agent, FIG. 3

## C=CCn1c(=O)c2cnc(Nc3ccc(N4CCN(C)CC4)cc3)nc2n1-c1cccc(C(C)(C)O)n1 [Compound 1]
Dose not printed for the single agent
  TGI: 122.8%

## C[C@@H]1Cc2c([nH]c3ccccc23)[C@@H](c2c(F)cc(/C=C/C(=O)O)cc2F)N1C12CC(C1)C2 [Compound (A)]
10 mg/kg
  TGI: 128.3%
